{
  "source": "patent US20070060636A1",
  "about": "“High enantiomeric purity dexanabinol for pharmaceutical compositions” (priority 2002, published 2007)",
  "key": {"[1]": {"assay": "toxicology studies, single and/or multiple i.v. doses", "type": "in vivo, rats, rabbits, and monkeys", "procedure": "In order to support the i.v. testing of dexanabinol of high enantiomeric purity in humans, a series of acute single-dose and sub-chronic multiple dose toxicology studies were conducted to establish the safety profile of the compound in rats, rabbits, and monkeys. The 2-week and 4-week multidose studies included complete clinical and morphological evaluations. In vitro/in vivo mutagenicity studies and special toxicological evaluations have also been carried out to evaluate the safety profile of dexanabinol. The toxicology studies employed doses that were multiples of the proposed clinical doses."}, "[2]": {"assay": "single dose toxicity and pharmacokinetics, monkey", "type": "in vivo, Cynomolgus monkeys", "details": "for AUC(0-inf) / Cmax: plasma, single i.v. 50 mg/kg (NOAEL); for AUC∞ Ratio to Phase I / Cmax Ratio to Phase I / Cmax Ratio to Phase II: single i.v. 50 mg/kg; for AUC∞ Ratio to Phase I / Cmax Ratio to Phase I: vs human 150 mg Phase I; for Cmax Ratio to Phase II: vs human 150 mg Phase II", "procedure": "(§1) The pharmacokinetics of dexanabinol of high enantiomeric purity formulated in CREMOPHOR EL®:ethanol as described in Example 4 were investigated in rats, rabbits, and monkeys following intravenous administration of single doses, and 14 and 28 days of repeated dosing. Human pharmacokinetics was studied during Phase I and Phase II clinical studies. Dexanabinol used in the pharmacokinetic studies was formulated as drug concentrates of 50 and 100 mg/ml and diluted with sterile 0.9% NaCl solution prior to intravenous (i.v.) administration to the desired final doses. Determination of dexanabinol concentrations in plasma and brain extracts was carried out using a validated Gas Chromatography-Mass Spectra (GC-MS) assay following solid phase extraction of the drug and derivatization. The limit of quantitation of the assay is 0.1 ng/ml.\n(§2) Pharmacokinetic parameters were estimated by a non-compartmental method using WinNonlin Professional version 3.2 (Pharsight Corp., Mountain View, Calif.). The maximum plasma concentration (Cmax), when the drug is administered by infusion, is the concentration at the end of infusion. The Cmax following intravenous bolus administration is the value estimated by the software to be the concentration at t=0. The terminal slope (X) was estimated by linear regression through the last time points and used to calculate the terminal half-life (t1/2) from the following equation: t1/2=0.693/λ The area under the curve from time of dosing through the last time point (AUCz) was calculated by the linear trapezoid method. The AUC extrapolated to infinity (AUC∞) was calculated from the following equation: AUC∞=AUCz+Cz/λ where Cz is the concentration at the last time point predicted by the linear regression. AUC∞ was normalized for dose (mg/kg) and presented as AUC∞/Dose. Mean residence time (MRT), when the drug is administered by infusion is described by the following equation: MRT=(AUMC/AUC)−(TI)/2 Mean residence time after i.v. bolus administration is described by the following equation: MRT=(AUMC/AUC) where AUMC is the area under the first moment curve and TI is the length of infusion. Plasma clearance (CL), and the apparent volume of distribution at steady state (Vss) were calculated from the following equations: CL=Dose/AUC∞ Vss=MRT×CL\nTable 6 summarizes the maximum plasma concentration (Cmax) and the area under the plasma concentration versus time curve (AUC) observed at the NOAEL doses cited above, as well as the animal to human exposure ratios (ER) for dexanabinol of high enantiomeric purity, expressed as the ratio of the pharmacokinetic (PK) parameter to that observed for a 150 mg dose in a Phase I study in human volunteers and in Phase II study in patients suffering from severe traumatic brain injury (TBI)."}, "[3]": {"assay": "14-day multiple dose pharmacokinetic/toxicity study, rat", "type": "in vivo, rats", "details": "for AUC∞ Ratio to Phase I / Cmax Ratio to Phase I / AUC∞ Ratio to Phase II / Cmax Ratio to Phase II: 15 mg/kg Day 14; for AUC∞ Ratio to Phase I / Cmax Ratio to Phase I: vs human 150 mg Phase I; for AUC∞ Ratio to Phase II / Cmax Ratio to Phase II: vs human 150 mg Phase II", "procedure": "as §1, §2\nIn 14-day multiple dose pharmacokinetic studies, the NOAEL was 15 mg/kg/day in rats and 25 mg/kg/day in rabbits. In a 28-day study in monkeys the NOAEL was 25 mg/kg/day. Cmax and AUC observed following the last dose at the NOAEL in the multiple dose toxicity studies and the ratios of these values to those observed in the Phase I and II studies for the 150 mg dose are shown in Table 7."}, "[4]": {"system": "intra-ocular pressure (IOP)", "assay": "IOP lowering after topical administration in normotensive rabbits", "type": "in vivo, New Zealand White albino rabbits", "procedure": "New Zealand White albino rabbits weighing 2-2.5 kg were acclimatized in our animal facility for at least a week prior to IOP measurements. Drug, saline and blank-vehicle groups (n=8-12 animals per group) were included. In most experiments, 50 μl drops were applied at 09:00 and measurements were taken 1 hour, 3, 5, and 7 hours later. Baseline IOP was individualized for each animal and time point prior to drug testing. IOP was measured by a Digilab Pneumatonometer, Model 30R. ΔIOP was calculated by subtracting the baseline IOP from IOP value measured after drug application at a corresponding time point. Maximal ΔIOP and area under the ΔIOP×hours curve (AUC) were calculated and averaged for each group. Data of IOP, AUC, blood pressure and toxicity were analyzed by the Wilcoxon-Rank test."}, "[5]": {"assay": "ocular toxicity, topical instillation for five days four times daily", "type": "in vivo, rabbits", "details": "dexanabinol in SME, slit lamp", "procedure": "Ocular toxicity was tested as follows. Two groups of five animals each received topical instillation of dexanabinol in SME and blank SME for five days four times daily. The animals were examined daily with a slit lamp for ocular discharge, conjunctival hyperemia, corneal fluorescein staining and iris hyperemia. Results were scored on a 0.0-4.0 scale in 0.5 steps."}, "[6]": {"details": "in vivo; cited from earlier work"}, "[7]": {"details": "both sexes, cynomolgus monkey, iv, monkey male & female"}, "[8]": {"details": "cynomolgus monkey, iv, monkey female"}, "[9]": {"details": "cynomolgus monkey, iv, monkey male"}, "[10]": {"details": "plasma, iv, rat female, 15 mg/kg i.v. daily, final dose Day 14 (NOAEL)"}, "[11]": {"details": "plasma, iv, rat male, 15 mg/kg i.v. daily, final dose Day 14 (NOAEL)"}},
  "data": [
    {"smiles": "CCCCCCC(C)(C)c1cc(O)c2c(c1)OC(C)(C)[C@H]1CC=C(CO)C[C@H]21", "note": "[dexanabinol, 1,1-dimethylheptyl-(3S,4S)-7-hydroxy-Δ^6-tetrahydrocannabinol]", "values": [
      {"measurement": "tolerability", "setting": "[1]; CREMOPHOR EL:ethanol formulation, single and/or multiple i.v. doses in rats, rabbits and monkeys", "result": "generally well tolerated"},
      {"measurement": "psychomimetic side effect", "setting": "[1]; at dose tested, any of the animal species tested", "result": "no psychomimetic side effect"},
      {"measurement": "AUC(0-inf)", "setting": "[2]; [7]", "result": 127, "unit": "µg·h/mL"},
      {"measurement": "Cmax", "setting": "[2]; [7]", "result": 171, "unit": "µg/mL"},
      {"measurement": "NOAEL", "setting": "[2]; cynomolgus monkey, in vivo, iv, single dose i.v., read-out: no observed adverse effect level (NOAEL)", "result": 50, "unit": "mg/kg"},
      {"measurement": "AUC(0-inf)", "setting": "[2]; [8]", "result": 136, "unit": "µg·h/mL"},
      {"measurement": "Cmax", "setting": "[2]; [8]", "result": 175, "unit": "µg/mL"},
      {"measurement": "AUC(0-inf)", "setting": "[2]; [9]", "result": 117, "unit": "µg·h/mL"},
      {"measurement": "Cmax", "setting": "[2]; [9]", "result": 167, "unit": "µg/mL"},
      {"measurement": "AUC∞ Ratio to Phase I", "setting": "[2]; monkey female", "result": 42.4},
      {"measurement": "Cmax Ratio to Phase I", "setting": "[2]; monkey female", "result": 35.0},
      {"measurement": "Cmax Ratio to Phase II", "setting": "[2]; monkey female", "result": 89.0},
      {"measurement": "AUC∞ Ratio to Phase I", "setting": "[2]; monkey male & female", "result": 39.5},
      {"measurement": "Cmax Ratio to Phase I", "setting": "[2]; monkey male & female", "result": 34.2},
      {"measurement": "Cmax Ratio to Phase II", "setting": "[2]; monkey male & female", "result": 86.9},
      {"measurement": "AUC∞ Ratio to Phase I", "setting": "[2]; monkey male", "result": 36.6},
      {"measurement": "Cmax Ratio to Phase I", "setting": "[2]; monkey male", "result": 33.4},
      {"measurement": "Cmax Ratio to Phase II", "setting": "[2]; monkey male", "result": 84.9},
      {"measurement": "AUC(0-inf)", "setting": "[3]; [10]", "result": 58.6, "unit": "µg·h/mL"},
      {"measurement": "Cmax at 14 days", "setting": "[3]; [10]", "result": 17.4, "unit": "µg/mL"},
      {"measurement": "AUC(0-inf)", "setting": "[3]; [11]", "result": 32.7, "unit": "µg·h/mL"},
      {"measurement": "Cmax", "setting": "[3]; [11]", "result": 30.2, "unit": "µg/mL"},
      {"measurement": "AUC∞ Ratio to Phase I", "setting": "[3]; rat female", "result": 18.3},
      {"measurement": "Cmax Ratio to Phase I", "setting": "[3]; rat female", "result": 3.5},
      {"measurement": "AUC∞ Ratio to Phase II", "setting": "[3]; rat female", "result": 39.5},
      {"measurement": "Cmax Ratio to Phase II", "setting": "[3]; rat female", "result": 8.8},
      {"measurement": "AUC∞ Ratio to Phase I", "setting": "[3]; rat male", "result": 10.2},
      {"measurement": "Cmax Ratio to Phase I", "setting": "[3]; rat male", "result": 6.0},
      {"measurement": "AUC∞ Ratio to Phase II", "setting": "[3]; rat male", "result": 22.1},
      {"measurement": "Cmax Ratio to Phase II", "setting": "[3]; rat male", "result": 15.4},
      {"measurement": "NOAEL at 14 days", "setting": "[3]; rat, in vivo, iv, 14-day multiple dose i.v.", "result": 15, "unit": "mg/kg/day"},
      {"measurement": "AUC (ΔIOP×hours)", "setting": "[4]; 0.02% topical", "result": "6.4±2.5", "unit": "mmHg×Hour"},
      {"measurement": "maximal ΔIOP", "setting": "[4]; 0.02% topical", "result": "1.8±0.7", "unit": "mmHg"},
      {"measurement": "AUC (ΔIOP×hours)", "setting": "[4]; 0.05% topical", "result": "5.1±3.7", "unit": "mmHg×Hour"},
      {"measurement": "maximal ΔIOP", "setting": "[4]; 0.05% topical", "result": "1.8±0.9", "unit": "mmHg"},
      {"measurement": "maximal ΔIOP", "setting": "[4]; 0.1% topical", "result": "2.9±0.4", "unit": "mmHg"},
      {"measurement": "AUC (ΔIOP×hours)", "setting": "[4]; 0.1% topical, ±SEM", "result": "14.6±2.2", "unit": "mmHg×Hour"},
      {"measurement": "AUC (ΔIOP×hours)", "setting": "[4]; 0.2% topical", "result": "6.9±1.7", "unit": "mmHg×Hour"},
      {"measurement": "maximal ΔIOP", "setting": "[4]; 0.2% topical", "result": "2.2±0.6", "unit": "mmHg"},
      {"measurement": "IOP lowering effect compared to the vehicle and the saline", "setting": "[4]; all doses 0.02%, 0.05%, 0.1%, 0.2%, masked study", "result": "small, yet statistically significant"},
      {"measurement": "IOP lowering effect over three days", "setting": "[4]; daily application for three days, n=8", "result": "sustained IOP lowering effect"},
      {"measurement": "conjunctival injection and discharge", "setting": "[5]", "result": "mild conjunctival injection and discharge that did not significantly differ from SME-blank treated animals"},
      {"measurement": "corneal staining, corneal opacities and iris hyperemia", "setting": "[5]", "result": "did not occur in any of the animals"},
      {"measurement": "cardiovascular effects", "setting": "[6]", "result": "devoid of cardiovascular effects"}
    ]}
  ]
}
